Measured values: patent US4228292A, “N-Substituted benzothiazolines and benzoxazolines and their use as herbicides and plant growth regulants” (Monsanto Company, priority 1978, dated 1980)

Tests used:
soybean plants = assay: plant growth regulating activity on soybean plants; format: in vivo, variety Williams
Experimental: A number of soybean plants, variety Williams, were grown from seeds in plastic pots in the greenhouse for a period of one week at which time the plants are thinned to one plant per pot. When the second trifoliate leaf (three weeks) was fully expanded, the plants were treated with a solution of the active ingredient in acetone and water. Aqueous Tween 20 was used as a surfactant.
When the fifth trifoliate leaf (four to five weeks) was fully expanded, the treated plants were compared with the non-treated control plants and the observations recorded.

Crabgrass = assay: pre-emergent herbicidal test; format: in vivo; details: T; note: ranges in brackets are in %
Experimental: (§1) The pre-emergent test was conducted as follows:
(§2) A good grade of top soil was placed in aluminum pans and compactd to a depth of 0.95 to 1.27 cm. from the top of the pan. On the top of the soil was placed a predetermined number of seeds or vegetative propagules of various plant species. The soil required to level fill the pans after seeding or adding vegetative propagules was weighed into a pan. A known amount of the herbicidal active ingredient applied in a solvent or as a wettable powder and the soil were thoroughly mixed, and used as a cover layer for prepared pans. After treatment the pans were moved into a greenhouse bench where they were watered from below as needed to give adequate moisture for germination and growth.
(§3) A herbicidal rating code was used to signify the extent of phytotoxicity of each species. The ratings are defined as follows: […]

Hemp Sesbania = assay: pre-emergent herbicidal test; format: in vivo; details: R; note: ranges in brackets are in %
Experimental: as §1, §2, §3

Panicum Spp = assay: pre-emergent herbicidal test; format: in vivo; details: S; note: ranges in brackets are in %
Experimental: as §1, §2, §3

Rice = assay: pre-emergent herbicidal test; format: in vivo; details: O; note: ranges in brackets are in %
Experimental: as §1, §2, §3

Sorghum = assay: pre-emergent herbicidal test; format: in vivo; details: P; note: ranges in brackets are in %
Experimental: as §1, §2, §3

Soybean = assay: pre-emergent herbicidal test; format: in vivo; details: L; note: ranges in brackets are in %
Experimental: as §1, §2, §3

Sugar Beet = assay: pre-emergent herbicidal test; format: in vivo; details: M; note: ranges in brackets are in %
Experimental: as §1, §2, §3

Wheat = assay: pre-emergent herbicidal test; format: in vivo; details: N; note: ranges in brackets are in %
Experimental: as §1, §2, §3

Wild Buckwheat = assay: pre-emergent herbicidal test; format: in vivo; details: Q; note: ranges in brackets are in %
Experimental: as §1, §2, §3

COC(=N)C(C)n1c(=O)sc2ccccc21 (stereo not shown) [Compound 32]
Inhibition of dry weight.: plant growth regulant observations (soybean plants; 0.112 kg/h)

COC(=N)Cn1c(=O)sc2cc(Br)ccc21 [Compound 33]
0 (0-24): pre-emergent herbicidal rating (Crabgrass; 0.28 kg/h, 2 WAT) | pre-emergent herbicidal rating (Crabgrass; 1.12 kg/h, 2 WAT) | pre-emergent herbicidal rating (Crabgrass; 5.6 kg/h, 4 WAT) | pre-emergent herbicidal rating (Hemp Sesbania; 0.28 kg/h, 2 WAT) | pre-emergent herbicidal rating (Hemp Sesbania; 1.12 kg/h, 2 WAT) | pre-emergent herbicidal rating (Hemp Sesbania; 5.6 kg/h, 4 WAT) | pre-emergent herbicidal rating (Panicum Spp; 0.28 kg/h, 2 WAT) | pre-emergent herbicidal rating (Panicum Spp; 1.12 kg/h, 2 WAT) | pre-emergent herbicidal rating (Panicum Spp; 5.6 kg/h, 4 WAT) | pre-emergent herbicidal rating (Rice; 0.28 kg/h, 2 WAT) | pre-emergent herbicidal rating (Rice; 1.12 kg/h, 2 WAT) | pre-emergent herbicidal rating (Rice; 5.6 kg/h, 4 WAT) | pre-emergent herbicidal rating (Sorghum; 0.28 kg/h, 2 WAT) | pre-emergent herbicidal rating (Sorghum; 1.12 kg/h, 2 WAT) | pre-emergent herbicidal rating (Sorghum; 5.6 kg/h, 4 WAT) | pre-emergent herbicidal rating (Soybean; 0.28 kg/h, 2 WAT) | pre-emergent herbicidal rating (Soybean; 1.12 kg/h, 2 WAT) | pre-emergent herbicidal rating (Sugar Beet; 0.28 kg/h, 2 WAT) | pre-emergent herbicidal rating (Sugar Beet; 1.12 kg/h, 2 WAT) | pre-emergent herbicidal rating (Wheat; 0.28 kg/h, 2 WAT) | pre-emergent herbicidal rating (Wheat; 1.12 kg/h, 2 WAT) | pre-emergent herbicidal rating (Wheat; 5.6 kg/h, 4 WAT) | pre-emergent herbicidal rating (Wild Buckwheat; 0.28 kg/h, 2 WAT) | pre-emergent herbicidal rating (Wild Buckwheat; 1.12 kg/h, 2 WAT)
1 (25-49): pre-emergent herbicidal rating (Soybean; 5.6 kg/h, 4 WAT) | pre-emergent herbicidal rating (Sugar Beet; 5.6 kg/h, 4 WAT) | pre-emergent herbicidal rating (Wild Buckwheat; 5.6 kg/h, 4 WAT)
Inhibition of dry weight.: plant growth regulant observations (soybean plants; 0.112 kg/h)

COC(=N)C(C)n1c(=O)sc2cc(Br)ccc21 (stereo not shown) [Compound 34]
Leaf alteration of new growth.: plant growth regulant observations (soybean plants; 0.112 kg/h)

COC(=N)Cn1c(=O)oc2ccccc21 [Compound 35]
No response.: plant growth regulant observations (soybean plants; 0.112 kg/h) | plant growth regulant observations (soybean plants; 0.56 kg/h)

COC(=N)CCn1c(=O)sc2cc(Br)ccc21 [Compound 36]
Leaf alteration of new growth.: plant growth regulant observations (soybean plants; 0.112 kg/h) | plant growth regulant observations (soybean plants; 0.56 kg/h)
